Test results as given in ChEMBL document CHEMBL3351474, “Ambidalmines A-E and ambidimerine F: bioactive dihydrobenzophenanthridine alkaloids from Corydalis ambigua var. amurensis” (2014).

Experiments:
Assay type in all cases: functional
H9c2 [1] = assay: Cytoprotective activity against ischemia-hypoxia injury in rat H9c2 cells assessed as increase in cell viability at 10 uM by MTT assay relative to control
H9c2 [2] = assay: Cytoprotective activity against ischemia-hypoxia injury in rat H9c2 cells assessed as increase in cell viability at 0.01 uM by MTT assay relative to control
H9c2 [3] = assay: Cytoprotective activity against ischemia-hypoxia injury in rat H9c2 cells assessed as increase in cell viability at 0.1 uM by MTT assay relative to control
H9c2 [4] = assay: Cytoprotective activity against ischemia-hypoxia injury in rat H9c2 cells assessed as increase in cell viability at 1 uM by MTT assay relative to control

Structure (SMILES) | Activity (H9c2 [1]) [%] | Activity (H9c2 [2]) [%] | Activity (H9c2 [3]) [%] | Activity (H9c2 [4]) [%]
COc1cc2c(OC)cc3c(c2cc1OC)N(C)[C@@H](CC(C)=O)c1c2c(cc(OC)c1-3)OCO2 | 44.27 | 53.88 | 50.09 | 45.29
COc1cc2c(OC)cc3c(c2cc1OC)N(C)C(CC(=O)CC(C)(C)O)c1c2c(cc(OC)c1-3)OCO2 (racemic) | 32.63 | 41.8 | 41.47 | 44.75
COc1cc2c(OC)cc3c(c2cc1OC)N(C)[C@@H](CO)c1c2c(cc(OC)c1-3)OCO2 | 32.71 | 47.54 | 54.72 | 49.42
COc1cc2c(OC)cc3c(c2cc1OC)N(C)[C@H](CC(=O)C[C@H]1c2c4c(cc(OC)c2-c2cc(OC)c5cc(OC)c(OC)cc5c2N1C)OCO4)c1c2c(cc(OC)c1-3)OCO2 | 44.75 | – | 50.56 | 44.26
COc1cc2c(OC)cc3c(c2cc1OC)N(C)[C@H](CO)c1c2c(cc(OC)c1-3)OCO2 | 36.62 | 41.38 | 46.01 | 50.74
COc1cc2c(OC)cc3c(c2cc1OC)N(C)[C@H](CC(C)=O)c1c2c(cc(OC)c1-3)OCO2 | 29.1 | 42.15 | 40.68 | 37.74
COc1cc2c(OC)cc3c(c2cc1OC)N(C)[C@@H](CC(=O)C[C@H]1c2c4c(cc(OC)c2-c2cc(OC)c5cc(OC)c(OC)cc5c2N1C)OCO4)c1c2c(cc(OC)c1-3)OCO2 | 27.48 | 40.26 | 41.02 | 36.59
